Experimental data as given in PubChem BioAssay (NCI).
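Exposure lasted 48 hours, with cells grown in 96-well plates and compounds tested at five concentrations. At the GI50, growth is halved. Definition used: TGI = concentration required for complete inhibition of growth.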

Experiments:
Assay in all cases: DTP human tumour cell line panel, 48 h
[1] = tested on: 786-0 renal
[2] = tested on: CAKI-1 renal
[3] = tested on: EKVX NSCLC
[4] = tested on: HOP-92 NSCLC
[5] = tested on: IGROV1 ovarian
[6] = tested on: SF-539 CNS
[7] = tested on: SK-MEL-5 melanoma
[8] = tested on: SNB-75 CNS
[9] = tested on: SF-268 CNS
[10] = tested on: MCF7 breast

| SMILES | TGI [1] [µM] | TGI [2] [µM] | TGI [3] [µM] | TGI [4] [µM] | TGI [5] [µM] | TGI [6] [µM] | TGI [7] [µM] | TGI [8] [µM] | TGI [9] [µM] | GI50 [1] [µM] | GI50 [2] [µM] | GI50 [3] [µM] | GI50 [4] [µM] | GI50 [10] [µM] | TGI [10] [µM] | GI50 [9] [µM] | GI50 [6] [µM] | GI50 [7] [µM] | GI50 [8] [µM] | GI50 [5] [µM] |
| --- | --- | --- | --- | --- | --- | --- | --- | --- | --- | --- | --- | --- | --- | --- | --- | --- | --- | --- | --- | --- |
| CC(=O)OC1CCn2nnc(COC(=O)NC(C)C)c21 (centres undefined) | > 100 | > 100 | > 100 | > 100 | > 100 | > 100 | > 100 | > 100 | – | – | – | – | – | – | – | – | – | – | – | – |
| CCCNCc1nc2ccc(Br)cc2c(=O)n1CCC | 29.5 | – | 33.3 | – | 29.7 | 29.5 | 21.6 | 31.7 | 26.9 | – | – | – | – | – | – | – | – | – | – | – |
| ClCCN(CCCl)c1ccc(-n2cnc3c(Cl)ncnc32)cc1 | 28.4 | 2.05 | 3.66 | 26.1 | – | 19 | 5.94 | 7.37 | 3.73 | 14 | 0.697 | 1.65 | 10.9 | 3.68 | 15.1 | 1.81 | 5.23 | 2.36 | 2.06 | – |
| Cc1c(C(=O)/C=C/c2ccc(Cl)cc2)[n+](=O)c2ccccc2n1[O-] | 27.4 | 31.6 | 31.2 | 37.7 | 39.4 | 25.7 | – | 40.7 | 28.6 | – | – | – | – | – | – | – | – | – | – | – |
| O=C(CCC(=O)Nc1ccc(Cl)cc1)CC(=O)c1ccc(F)cc1 | > 100 | > 100 | – | > 100 | > 100 | > 100 | – | > 100 | > 100 | – | – | – | – | – | – | – | – | – | – | – |
| CC(=O)N1CC2Nc3ccccc3C2CC1CO (centres undefined) | > 100 | > 100 | > 100 | > 100 | > 100 | > 100 | > 100 | > 100 | > 100 | – | – | – | – | – | – | – | – | – | – | – |
| C(=C\c1csnn1)/c1cccnc1 | > 100 | – | > 100 | – | – | > 100 | – | > 100 | > 100 | – | – | – | – | – | – | – | – | – | – | – |
| Cn1c(=O)cc2c3c(c(NCCCO)ccc31)C(=O)c1ccccc1-2 | > 100 | > 100 | > 100 | – | > 100 | > 100 | > 100 | > 100 | > 100 | 1.53 | 1.79 | 5.23 | – | 3.46 | > 100 | 6.75 | 8.8 | 3.97 | 4.36 | 4.98 |
| N#Cc1ccccc1C#C/C=C\C#Cc1ccc(OCCCNC(=O)c2cc3ccccc3[nH]2)cc1 | 40.5 | 48 | 96.6 | – | 33.7 | 35.6 | 20.2 | 42.6 | > 100 | 16.1 | 20.2 | 17.1 | – | 33.4 | > 100 | 30.6 | 15.4 | 4.24 | 17.9 | 14.1 |
| O=c1ccccc2cccc(O)c12 | > 100 | > 100 | > 100 | > 100 | > 100 | > 100 | > 100 | > 100 | – | – | – | – | – | – | – | – | – | – | – | – |
| COc1ccc(C(c2ccc(C(C)C)cc(=O)c2O)c2c(O)cc3oc(-c4ccccc4)cc(=O)c3c2O)cc1 (centres undefined) | 14.1 | 36.3 | > 100 | 3.53 | 24.4 | 21.5 | 29.4 | > 100 | – | – | – | – | – | – | – | – | – | – | – | – |
| O=C1CCCC/C1=C/C=C/c1ccccc1 | > 100 | > 100 | – | > 100 | > 100 | > 100 | > 100 | > 100 | > 100 | – | – | – | – | – | – | – | – | – | – | – |
| O=c1/c(=C/c2ccc(Cl)cc2Cl)sc2nc3ccccc3n12 | > 100 | > 100 | > 100 | > 100 | > 100 | > 100 | > 100 | > 100 | > 100 | – | – | – | – | – | – | – | – | – | – | – |
| CCCCCCCCCCCCCCCC(=O)OCC(O)C1OC(=O)C(O)=C1O (centres undefined) | 38.8 | 96.6 | > 100 | – | 84.5 | 53.2 | > 100 | 46 | 60.4 | – | – | – | – | – | 4.81 | – | – | – | – | – |
| CCOC(=O)/N=C(\N)SCc1ccccc1 | > 100 | > 100 | > 100 | > 100 | > 100 | > 100 | > 100 | > 100 | > 100 | – | – | – | – | – | – | – | – | – | – | – |
| Cc1cc(NS(=O)(=O)c2ccc(NC(=O)c3cccc4c(N)c5ccccc5nc34)cc2)no1 | 33.7 | 80.4 | > 100 | – | 59.3 | 47.6 | – | > 100 | 76.9 | – | – | – | – | – | – | – | – | – | – | – |
| O=c1cc(Cl)nc[nH]1 | > 100 | > 100 | > 100 | – | > 100 | – | > 100 | > 100 | > 100 | – | – | – | – | – | – | – | – | – | – | – |
| O=C1c2ccccc2C(=O)N1c1ccc(S(=O)(=O)Nc2ncccn2)cc1 | > 100 | > 100 | > 100 | – | > 100 | > 100 | > 100 | > 100 | > 100 | > 100 | > 100 | > 100 | – | > 100 | > 100 | > 100 | > 100 | > 100 | > 100 | > 100 |
| CCC[CH2][Sn]([CH2]CCC)([O]C(=O)c1cccc(F)c1)[O]C(=O)c1cccc(F)c1 | 2.49 | 1.43 | 2.96 | – | 2.93 | 2.31 | 2.76 | 1.94 | 2.53 | 1.19 | 0.369 | 1.3 | – | – | – | 1.16 | 1.1 | 1.39 | 0.657 | 1.43 |
| CCc1c2c(nc3cc4c(cc13)OCO4)-c1cc3c(c(=O)n1C2)COC(=O)[C@@]3(CC)OC(=O)CN | < 0.0127 | – | > 100 | – | – | < 0.01 | 0.037 | < 0.045 | – | < 0.01 | < 0.01 | 0.0321 | – | < 0.01 | < 0.0346 | < 0.01 | < 0.01 | < 0.01 | < 0.01 | – |
| CC1(O)CC2C(CC1SCCO)C2(C)C (centres undefined) | > 100 | – | > 100 | > 100 | > 100 | > 100 | > 100 | > 100 | > 100 | – | – | – | – | – | – | – | – | – | – | – |
